Organism: Rattus norvegicus
Experiment: Open TG-GATES - Regimen: Daily Repeat
Format: toxicity, organism-based, Sprague-Dawley
Design: regimen Daily Repeat, gender Male, age 6 weeks
Settings: in vivo, iv, 2 mg/kg, route intravenous injection, dose level Low; for APTT / Bas / Eos / Fbg / Hb / Ht / Lym / MCH / MCHC / MCV / Mono / Neu / PT / Plat / RBC / Ret / WBC: tissue Blood; for KIDNEY_L / KIDNEY_R / KIDNEY_TOTAL: tissue Kidney; for LIVER: tissue Liver; for A/G / ALP / ALT / AST / BUN / CRE / Ca / Cl / DBIL / GLC / IP / K / LDH / Na / PL / RALB / TBIL / TC / TG / TP / gamma-GTP: tissue Plasma

`NCCBr` [BROMOETHANAMINE] showed a TERMINAL_BW (72 h, time 3 day) of 236.2 g, an APTT (72 h, time 3 day) of 22.5 s and a Bas (72 h, time 3 day) of 0%. The Eos (72 h, time 3 day) was 1%, the Fbg (72 h, time 3 day) was 280.4 mg/dL and the Hb (72 h, time 3 day) was 13.2 g/dL. The Ht (72 h, time 3 day) was 38.3%, the Lym (72 h, time 3 day) was 83.2% and the MCH (72 h, time 3 day) was 21.2 pg. It also gave an MCHC (72 h, time 3 day) of 34.4%, an MCV (72 h, time 3 day) of 61.6 fL and a Mono (72 h, time 3 day) of 2.8%. For the same compound, the Neu (72 h, time 3 day) was 12%, the PT (72 h, time 3 day) was 16.2 s and the Plat (72 h, time 3 day) was 119.2 x10_4/uL. For the same compound, the RBC (72 h, time 3 day) was 620.8 x10_4/ul, the Ret (72 h, time 3 day) was 4.7% and the WBC (72 h, time 3 day) was 80.2 x10_2/uL. It also gave a KIDNEY_L (72 h, time 3 day) of 1 g, a KIDNEY_R (72 h, time 3 day) of 1 g and a KIDNEY_TOTAL (72 h, time 3 day) of 2 g. For the same compound, the LIVER (72 h, time 3 day) was 11.1 g, the A/G (72 h, time 3 day) was 1.3 and the ALP (72 h, time 3 day) was 1553.4 IU/L. For the same compound, the ALT (72 h, time 3 day) was 39.6 IU/L, the AST (72 h, time 3 day) was 68.4 IU/L and the BUN (72 h, time 3 day) was 16.2 mg/dL. It also gave a CRE (72 h, time 3 day) of 0.2 mg/dL, a Ca (72 h, time 3 day) of 10.8 mg/dL and a Cl (72 h, time 3 day) of 106.4 meq/L. It also gave a DBIL (72 h, time 3 day) of 0 mg/dL, a GLC (72 h, time 3 day) of 178.6 mg/dL and an IP (72 h, time 3 day) of 7.2 mg/dL. For the same compound, the K (72 h, time 3 day) was 4.6 meq/L, the LDH (72 h, time 3 day) was 195.6 IU/L and the Na (72 h, time 3 day) was 141.8 meq/L. The PL (72 h, time 3 day) was 143.4 mg/dL, the RALB (72 h, time 3 day) was 3.1 g/dL and the TBIL (72 h, time 3 day) was 0.006 mg/dL. For the same compound, the TC (72 h, time 3 day) was 73.6 mg/dL, the TG (72 h, time 3 day) was 113 mg/dL and the TP (72 h, time 3 day) was 5.6 g/dL. For the same compound, the gamma-GTP (72 h, time 3 day) was 2 IU/L, the TERMINAL_BW ([…], time 7 day) was 254.2 g and the TERMINAL_BW ([…], time 14 day) was 302.2 g. It also gave a TERMINAL_BW ([…], time 28 day) of 366.5 g, an APTT ([…], time 7 day) of 22.7 s and a Bas ([…], time 7 day) of 0%. For the same compound, the Eos ([…], time 7 day) was 0.8%, the Fbg ([…], time 7 day) was 278.8 mg/dL and the Hb ([…], time 7 day) was 13.5 g/dL. It also gave a Ht ([…], time 7 day) of 39.3%, a Lym ([…], time 7 day) of 80.6% and an MCH ([…], time 7 day) of 21 pg. The MCHC ([…], time 7 day) was 34.4%, the MCV ([…], time 7 day) was 61 fL and the Mono ([…], time 7 day) was 2.8%. It also gave a Neu ([…], time 7 day) of 15%, a PT ([…], time 7 day) of 15.8 s and a Plat ([…], time 7 day) of 116.6 x10_4/uL. The RBC ([…], time 7 day) was 644 x10_4/ul, the Ret ([…], time 7 day) was 3.9% and the WBC ([…], time 7 day) was 126.7 x10_2/uL. For the same compound, the APTT ([…], time 14 day) was 23 s, the Bas ([…], time 14 day) was 0% and the Eos ([…], time 14 day) was 1%. For the same compound, the Fbg ([…], time 14 day) was 310.8 mg/dL, the Hb ([…], time 14 day) was 14.1 g/dL and the Ht ([…], time 14 day) was 40.3%. For the same compound, the Lym ([…], time 14 day) was 84.8%, the MCH ([…], time 14 day) was 20.5 pg and the MCHC ([…], time 14 day) was 35%. For the same compound, the MCV ([…], time 14 day) was 58.7 fL, the Mono ([…], time 14 day) was 2.2% and the Neu ([…], time 14 day) was 11.4%. For the same compound, the PT ([…], time 14 day) was 15.8 s, the Plat ([…], time 14 day) was 116.5 x10_4/uL and the RBC ([…], time 14 day) was 686.6 x10_4/ul. For the same compound, the Ret ([…], time 14 day) was 3.3%, the WBC ([…], time 14 day) was 104.7 x10_2/uL and the APTT ([…], time 28 day) was 24.7 s. For the same compound, the Bas ([…], time 28 day) was 0%, the Eos ([…], time 28 day) was 1% and the Fbg ([…], time 28 day) was 305.8 mg/dL. For the same compound, the Hb ([…], time 28 day) was 15.7 g/dL, the Ht ([…], time 28 day) was 42.4% and the Lym ([…], time 28 day) was 85.4%. For the same compound, the MCH ([…], time 28 day) was 20.4 pg, the MCHC ([…], time 28 day) was 37.1% and the MCV ([…], time 28 day) was 54.9 fL. For the same compound, the Mono ([…], time 28 day) was 1.4%, the Neu ([…], time 28 day) was 10.6% and the PT ([…], time 28 day) was 16.4 s. For the same compound, the Plat ([…], time 28 day) was 110.2 x10_4/uL, the RBC ([…], time 28 day) was 772.8 x10_4/ul and the Ret ([…], time 28 day) was 1.9%. The WBC ([…], time 28 day) was 107.8 x10_2/uL, the KIDNEY_L ([…], time 7 day) was 1.1 g and the KIDNEY_R ([…], time 7 day) was 1.1 g. For the same compound, the KIDNEY_TOTAL ([…], time 7 day) was 2.2 g, the KIDNEY_L ([…], time 14 day) was 1.2 g and the KIDNEY_R ([…], time 14 day) was 1.2 g. The KIDNEY_TOTAL ([…], time 14 day) was 2.4 g, the KIDNEY_L ([…], time 28 day) was 1.4 g and the KIDNEY_R ([…], time 28 day) was 1.4 g. It also gave a KIDNEY_TOTAL ([…], time 28 day) of 2.8 g, an LIVER ([…], time 7 day) of 11.6 g and an LIVER ([…], time 14 day) of 13.5 g. For the same compound, the LIVER ([…], time 28 day) was 15 g, the A/G ([…], time 7 day) was 1.2 and the ALP ([…], time 7 day) was 1420.8 IU/L. For the same compound, the ALT ([…], time 7 day) was 36.2 IU/L, the AST ([…], time 7 day) was 64 IU/L and the BUN ([…], time 7 day) was 16.2 mg/dL. For the same compound, the CRE ([…], time 7 day) was 0.2 mg/dL, the Ca ([…], time 7 day) was 10.7 mg/dL and the Cl ([…], time 7 day) was 105.8 meq/L. It also gave a DBIL ([…], time 7 day) of 0 mg/dL, a GLC ([…], time 7 day) of 181 mg/dL and an IP ([…], time 7 day) of 7 mg/dL. It also gave a K ([…], time 7 day) of 4.6 meq/L, an LDH ([…], time 7 day) of 158.8 IU/L and a Na ([…], time 7 day) of 140.8 meq/L. It also gave a PL ([…], time 7 day) of 141 mg/dL, an RALB ([…], time 7 day) of 2.9 g/dL and a TBIL ([…], time 7 day) of 0.01 mg/dL. It also gave a TC ([…], time 7 day) of 75.2 mg/dL, a TG ([…], time 7 day) of 93 mg/dL and a TP ([…], time 7 day) of 5.4 g/dL. It also gave a gamma-GTP ([…], time 7 day) of 2 IU/L, an A/G ([…], time 14 day) of 1.1 and an ALP ([…], time 14 day) of 1559.2 IU/L. For the same compound, the ALT ([…], time 14 day) was 40.6 IU/L, the AST ([…], time 14 day) was 67.6 IU/L and the BUN ([…], time 14 day) was 17.6 mg/dL. It also gave a CRE ([…], time 14 day) of 0.2 mg/dL, a Ca ([…], time 14 day) of 10.9 mg/dL and a Cl ([…], time 14 day) of 107 meq/L. It also gave a DBIL ([…], time 14 day) of 0 mg/dL, a GLC ([…], time 14 day) of 184 mg/dL and an IP ([…], time 14 day) of 7.1 mg/dL. It also gave a K ([…], time 14 day) of 4.3 meq/L, an LDH ([…], time 14 day) of 168.6 IU/L and a Na ([…], time 14 day) of 144.4 meq/L. It also gave a PL ([…], time 14 day) of 149 mg/dL, an RALB ([…], time 14 day) of 3 g/dL and a TBIL ([…], time 14 day) of 0 mg/dL. For the same compound, the TC ([…], time 14 day) was 75.4 mg/dL, the TG ([…], time 14 day) was 123 mg/dL and the TP ([…], time 14 day) was 5.7 g/dL. The gamma-GTP ([…], time 14 day) was 2.6 IU/L, the A/G ([…], time 28 day) was 1.1 and the ALP ([…], time 28 day) was 1213.2 IU/L. It also gave an ALT ([…], time 28 day) of 40.8 IU/L, an AST ([…], time 28 day) of 66 IU/L and a BUN ([…], time 28 day) of 18.4 mg/dL. For the same compound, the CRE ([…], time 28 day) was 0.2 mg/dL, the Ca ([…], time 28 day) was 10.4 mg/dL and the Cl ([…], time 28 day) was 105.6 meq/L. For the same compound, the DBIL ([…], time 28 day) was 0 mg/dL, the GLC ([…], time 28 day) was 188.6 mg/dL and the IP ([…], time 28 day) was 6.6 mg/dL. The K ([…], time 28 day) was 4.1 meq/L, the LDH ([…], time 28 day) was 123 IU/L and the Na ([…], time 28 day) was 145.8 meq/L. The PL ([…], time 28 day) was 141.8 mg/dL, the RALB ([…], time 28 day) was 3.2 g/dL and the TBIL ([…], time 28 day) was 0.01 mg/dL. The TC ([…], time 28 day) was 67.4 mg/dL, the TG ([…], time 28 day) was 133.8 mg/dL and the TP ([…], time 28 day) was 6 g/dL. For the same compound, the gamma-GTP ([…], time 28 day) was 3 IU/L.
